# Key:
# [1] = test system: antibodies contained in pools of serums from patients suffering from active tuberculosis; assay: ELISA screening of peptides on pools of serums from patients with active TB (ratio R); settings: for ratio R: for 3 of the 4 serums tested
# Procedure: In order to determine which peptides are of interest, a ratio R is calculated, the ratio R being the normalized measurement value of the immune complex formation, relative to the respective background noises of the serums and components used to detect the immune complexes, to, or divided by, the normalized measurement value obtained from the sample derived from a healthy individual relative to the respective background noises of the serums and components used to detect the immune complexes.
# In order to determine the immunogenicity of the peptides, they are tested using the following ELISA test:
# The peptides are fixed on a Maxisorp (high binding) plate: Incubation overnight at 4° C., concentration of the protein in μg/ml from 20 to 50.
# The wells are rinsed with 300 μL of phosphate buffered saline (PBS).
# The “wells” are blocked for 2 hours at ambient temperature (19° C.-25° C.) with 200 μL of bovine serum albumin (BSA) 2% and 0.01% of Tween 20.
# The wells are rinsed with 200 μL of PBS.
# One deposits 100 μL of serums from patients suffering from active TA diluted at 1/100th in blocking solution and incubates for one hour at 37° C.
# Perform 3 washes (300 μL) PBS-Tween 20 (0.05%).
# One adds 100 μL of antibodies conjugated with peroxidase, diluted at 1/20,000 with blocking solution and incubates for 1 h at 37° C.
# One adds 100 μL of 3,3′,5,5′-tetramethylbenzidine (TMB) and incubates for 20 minutes in the dark.
# One deposits 50 μL of sulfuric acid at 1N.
# A spectrophotometer is used at 450 nm to read the quantity of TMB converted by the peroxidase (indicative of the formation of an immune complex between the peptides and the antibodies contained in the serum).
# [2] = test system: negative pool (serum of individuals not suffering from tuberculosis); assay: ELISA of peptides on negative pool of samples; format: binding, human; settings: 450 nm
Sequence,ratio R [1],OD Negative pool [2],ratio ([1]; for both pools of patients),Ratio Positive pool 1 ([1]; positive pool 1),Ratio Positive pool 2 ([1]; positive pool 2)
TAACPDAEWFARGR (TAACPDAEVVFARGR; derived from Rv2301) [Peptide Z1],greater than 1.5,,,,
CNNGDPICSDGNRWR (derived from Rv3452) [Peptide D7],greater than 1.5,0.303,> 1.5,1.7,1.7
DADARVAVPRRDDL (DADARVAVPGRRDDL; derived from LipW) [Peptide W7],greater than 1.5,,,,
